Test results reported in ChEMBL document CHEMBL1123539, “[p-[(Thienylcarbonyl)amino]phenoxy]propanolamines derivatives as diuretic and beta-adrenergic receptor blocking agents” (1986).
Values belong to the compound of their own block, whether it stands above or below them.

Columns and labels:
Rattus norvegicus [1] = test: Compound was tested for oral salidiuretic activity (control/drug treatment value) in rats expressed as urinary output. at a dose of 128 mg/kg; 9.05/12.83; type: functional, Urine
Rattus norvegicus [2] = test: Compound was tested for oral salidiuretic activity (control/drug treatment value) in rats expressed as urinary output. at a dose of 16 mg/kg; 9.05/9.87; type: functional, Urine
Rattus norvegicus [3] = test: Compound was tested for oral salidiuretic activity (control/drug treatment value) in rats expressed in Na+, mequiv/6 hr at a dose of 128 mg/kg; 0.216/0.263; type: functional, Urine
Rattus norvegicus [4] = test: Compound was tested for oral salidiuretic activity (control/drug treatment value) in rats expressed in Na+, mequiv/6 hr at a dose of 32 mg/kg; 0.216/0.207; type: functional, Urine
Rattus norvegicus [5] = test: Compound was tested for oral salidiuretic activity (control/drug treatment value) in rats expressed in Na+, mequiv/6 hr at a dose of 64 mg/kg; 0.216/0.097; type: functional, Urine
Rattus norvegicus [6] = test: Compound was tested for oral salidiuretic activity (control/drug treatment value) in rats expressed in Na+, mequiv/6 hr at a dose of 16 mg/kg; 0.216/0.178; type: functional, Urine
Rattus norvegicus [7] = test: Compound was tested for oral salidiuretic activity (control/drug treatment value) in rats expressed in Na+, mequiv/6 hr at a dose of 32 mg/kg; 0.140/0.416; type: functional, Urine
Rattus norvegicus [8] = test: Compound was tested for oral salidiuretic activity (control/drug treatment value) in rats expressed as urinary output. at a dose of 32 mg/kg; 10.33/10.75; type: functional, Urine
[9] = molecular target: Beta-1 adrenergic receptor (Homo sapiens) (UniProt P08588); conditions: Canis lupus familiaris
Description: Compound was tested for beta-1 adrenergic receptor blocking activity in dogs

[10] = molecular target: Beta-2 adrenergic receptor (Canis lupus familiaris) (UniProt P54833)
Description: The compound was tested for beta-2 adrenergic receptor blocking activity in dogs

Rattus norvegicus [11] = test: Compound was tested for oral salidiuretic activity (control/drug treatment value) in rats expressed as urinary output. at a dose of 128 mg/kg; 7.70/12.75; type: functional, Urine
Rattus norvegicus [12] = test: Compound was tested for oral salidiuretic activity (control/drug treatment value) in rats expressed in Na+, mequiv/6 hr at a dose of 128 mg/kg; 0.114/0.707
Rattus norvegicus [13] = test: Compound was tested for oral salidiuretic activity (control/drug treatment value) in rats expressed in Na+, mequiv/6 hr at a dose of 128 mg/kg; 0.112/0.407; type: functional, Urine
Rattus norvegicus [14] = test: Compound was tested for oral salidiuretic activity (control/drug treatment value) in rats expressed as urinary output. at a dose of 128 mg/kg; 7.25/9.43; type: functional, Urine
Rattus norvegicus [15] = test: Compound was tested for oral salidiuretic activity (control/drug treatment value) in rats expressed as urinary output. at a dose of 14 mg/kg; 7.17/9.08; type: functional, Urine
Rattus norvegicus [16] = test: Compound was tested for oral salidiuretic activity (control/drug treatment value) in rats expressed as urinary output. at a dose of 27 mg/kg; 7.17/9.75; type: functional, Urine
Rattus norvegicus [17] = test: Compound was tested for oral salidiuretic activity (control/drug treatment value) in rats expressed as urinary output. at a dose of 55 mg/kg; 7.17/9.58; type: functional, Urine
Rattus norvegicus [18] = test: Compound was tested for oral salidiuretic activity (control/drug treatment value) in rats expressed in Na+, mequiv/6 hr at a dose of 110 mg/kg; 0.261/0.735; type: functional, Urine
Rattus norvegicus [19] = test: Compound was tested for oral salidiuretic activity (control/drug treatment value) in rats expressed as urinary output. at a dose of 110 mg/kg; 7.17/11.20; type: functional, Urine
Rattus norvegicus [20] = test: Compound was tested for oral salidiuretic activity (control/drug treatment value) in rats expressed in Na+, mequiv/6 hr at a dose of 14 mg/kg; 0.261/0.695; type: functional, Urine
Rattus norvegicus [21] = test: Compound was tested for oral salidiuretic activity (control/drug treatment value) in rats expressed in Na+, mequiv/6 hr at a dose of 27 mg/kg; 0.261/0.742; type: functional, Urine
Rattus norvegicus [22] = test: Compound was tested for oral salidiuretic activity (control/drug treatment value) in rats expressed in Na+, mequiv/6 hr at a dose of 110 mg/kg; 0.261/0.735
Rattus norvegicus [23] = test: Compound was tested for oral salidiuretic activity (control/drug treatment value) in rats expressed as urinary output. at a dose of 16 mg/kg; 7.67/8.78; type: functional, Urine
Rattus norvegicus [24] = test: Compound was tested for oral salidiuretic activity (control/drug treatment value) in rats expressed as urinary output. at a dose of 32 mg/kg; 7.67/10; type: functional, Urine
Rattus norvegicus [25] = test: Compound was tested for oral salidiuretic activity (control/drug treatment value) in rats expressed as urinary output. at a dose of 64 mg/kg; 7.67/12.42; type: functional, Urine
Rattus norvegicus [26] = test: Compound was tested for oral salidiuretic activity (control/drug treatment value) in rats expressed in Na+, mequiv/6 hr at a dose of 128 mg/kg; 0.181/0.607; type: functional, Urine
Rattus norvegicus [27] = test: Compound was tested for oral salidiuretic activity (control/drug treatment value) in rats expressed in Na+, mequiv/6 hr at a dose of 32 mg/kg; 0.181/0.230; type: functional, Urine
Rattus norvegicus [28] = test: Compound was tested for oral salidiuretic activity (control/drug treatment value) in rats expressed as urinary output. at a dose of 128 mg/kg; 7.67/14.18; type: functional, Urine
Rattus norvegicus [29] = test: Compound was tested for oral salidiuretic activity (control/drug treatment value) in rats expressed in Na+, mequiv/6 hr at a dose of 16 mg/kg; 0.181/0.242; type: functional, Urine
Rattus norvegicus [30] = test: Compound was tested for oral salidiuretic activity (control/drug treatment value) in rats expressed in Na+, mequiv/6 hr at a dose of 64 mg/kg; 0.181/0.512; type: functional, Urine
Rattus norvegicus [31] = test: Compound was tested for oral salidiuretic activity (control/drug treatment value) in rats expressed in Na+, mequiv/6 hr at a dose of 128 mg/kg; 0.306/0.786; type: functional, Urine
Rattus norvegicus [32] = test: Compound was tested for oral salidiuretic activity (control/drug treatment value) in rats expressed as urinary output. at a dose of 128 mg/kg; 6.83/10.83; type: functional, Urine
Rattus norvegicus [33] = test: Compound was tested for oral salidiuretic activity (control/drug treatment value) in rats expressed in Na+, mequiv/6 hr at a dose of 128 mg/kg; 0.229/0.172; type: functional, Urine
Rattus norvegicus [34] = test: Compound was tested for oral salidiuretic activity (control/drug treatment value) in rats expressed as urinary output. at a dose of 128 mg/kg; 4.88/5.32; type: functional, Urine
Rattus norvegicus [35] = test: Compound was tested for oral salidiuretic activity (control/drug treatment value) in rats expressed as urinary output. at a dose of 64 mg/kg; 10.33/12.42
Rattus norvegicus [36] = test: Compound was tested for oral salidiuretic activity (control/drug treatment value) in rats expressed in Na+, mequiv/6 hr at a dose of 64 mg/kg; 0.140/0.606

Sequence of Beta-2 adrenergic receptor (Canis lupus familiaris) (P54833 whole entry, looked up): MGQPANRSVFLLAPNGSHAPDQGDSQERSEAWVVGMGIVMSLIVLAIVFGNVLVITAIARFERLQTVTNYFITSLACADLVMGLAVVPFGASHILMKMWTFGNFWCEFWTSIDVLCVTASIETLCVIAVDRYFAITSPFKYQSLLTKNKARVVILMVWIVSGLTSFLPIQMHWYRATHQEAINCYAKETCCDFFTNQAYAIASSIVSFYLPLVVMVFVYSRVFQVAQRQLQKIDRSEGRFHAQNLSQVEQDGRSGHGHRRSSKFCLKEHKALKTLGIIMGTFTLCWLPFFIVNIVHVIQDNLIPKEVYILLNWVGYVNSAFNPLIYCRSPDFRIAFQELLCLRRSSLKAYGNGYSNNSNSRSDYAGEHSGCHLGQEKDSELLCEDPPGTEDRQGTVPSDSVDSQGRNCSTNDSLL
Sequence of Beta-1 adrenergic receptor (Homo sapiens) (P08588 whole entry, looked up): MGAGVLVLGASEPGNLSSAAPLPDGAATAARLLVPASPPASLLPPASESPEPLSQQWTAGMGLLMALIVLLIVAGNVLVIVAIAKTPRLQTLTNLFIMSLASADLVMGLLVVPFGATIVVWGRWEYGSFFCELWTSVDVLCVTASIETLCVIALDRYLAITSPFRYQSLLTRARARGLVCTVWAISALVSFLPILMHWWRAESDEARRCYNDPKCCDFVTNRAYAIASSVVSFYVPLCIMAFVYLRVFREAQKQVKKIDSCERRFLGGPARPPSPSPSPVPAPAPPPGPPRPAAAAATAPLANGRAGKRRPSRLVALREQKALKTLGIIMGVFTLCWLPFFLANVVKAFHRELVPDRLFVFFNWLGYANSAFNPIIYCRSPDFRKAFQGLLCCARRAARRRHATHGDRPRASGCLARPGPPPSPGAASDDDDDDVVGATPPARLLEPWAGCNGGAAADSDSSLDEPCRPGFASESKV

Compound: CC(C)NCC(O)COc1cccc2ccccc12 (stereo not drawn) [PROPRANOLOL]
- Activity (Rattus norvegicus [1]): 9.05 mL
- Activity (Rattus norvegicus [2]): 9.05 mL
- Activity (Rattus norvegicus [3]): 0.216
- Activity (Rattus norvegicus [4]): 0.216
- Activity (Rattus norvegicus [5]): 0.216
- Activity (Rattus norvegicus [6]): 0.216

Compound: Cc1cc(NC(=O)c2cccs2)ccc1OCC(O)CNC(C)(C)C (stereo not drawn)
- Activity (Rattus norvegicus [7]): 0.14
- Activity (Rattus norvegicus [8]): 10.33 mL
- ID50 [9]: 0.03 mg/kg
- ID50 [10]: > 1 mg/kg

Compound: CC(C)NCC(O)COc1ccc(NC(=O)c2cccs2)cc1 (stereo not drawn)
- treated urinary output (Rattus norvegicus [11]): 12.8 mL
- ID50 [9]: 0.045 mg/kg
- ID50 [10]: > 1 mg/kg
- Activity (Rattus norvegicus [12]): 0.114

Compound: NS(=O)(=O)c1cc2c(cc1Cl)NCNS2(=O)=O [HYDROCHLOROTHIAZIDE]
- Activity (Rattus norvegicus [15]): 7.17 mL
- Activity (Rattus norvegicus [16]): 7.17 mL
- treated urinary output (Rattus norvegicus [17]): 9.58 mL
- Activity (Rattus norvegicus [18]): 0.261
- treated urinary output (Rattus norvegicus [19]): 11.2 mL
- Activity (Rattus norvegicus [20]): 0.261
- Activity (Rattus norvegicus [21]): 0.261
- Activity (Rattus norvegicus [22]): 0.261

Compound: CC(C)(C)NCC(O)COc1ccc(NC(=O)c2cccs2)cc1 (stereo not drawn)
- Activity (Rattus norvegicus [23]): 7.67 mL
- treated urinary output (Rattus norvegicus [24]): 10 mL
- Activity (Rattus norvegicus [25]): 7.67 mL
- Activity (Rattus norvegicus [26]): 0.181
- Activity (Rattus norvegicus [27]): 0.181
- Activity (Rattus norvegicus [28]): 7.67 mL
- Activity (Rattus norvegicus [29]): 0.181
- Activity (Rattus norvegicus [30]): 0.181
- ID50 [9]: 0.075 mg/kg
- ID50 [10]: > 1 mg/kg

Further lines, with some results ahead:

- ID50 [9]: 0.17 mg/kg
- ID50 [10]: 0.25 mg/kg
Compound: CC(C)NCC(O)COc1ccc(NC(=O)c2cccs2)cc1C(=O)OC(C)C (stereo not drawn)
- Activity (Rattus norvegicus [13]): 0.112
- Activity (Rattus norvegicus [14]): 7.25 mL

- ID50 [9]: 0.042 mg/kg
- ID50 [10]: > 1 mg/kg
Compound: COC(=O)c1cc(NC(=O)c2cccs2)ccc1OCC(O)CNC(C)(C)C (stereo not drawn)
- Activity (Rattus norvegicus [31]): 0.306
- Activity (Rattus norvegicus [32]): 6.83 mL

- ID50 [9]: > 8 mg/kg
- ID50 [10]: > 8 mg/kg
Compound: CC(C)(C)NCC(O)COc1ccc(NC(=O)c2cccs2)cc1C(=O)O (stereo not drawn)
- Activity (Rattus norvegicus [33]): 0.229
- treated urinary output (Rattus norvegicus [34]): 5.32 mL

- ID50 [9]: 0.02 mg/kg
- ID50 [10]: > 1 mg/kg
Compound: Cc1cc(NC(=O)c2cccs2)ccc1OCC(O)CNC(C)C (stereo not drawn)
- Activity (Rattus norvegicus [35]): 10.33 mL
- Activity (Rattus norvegicus [36]): 0.14
